Assay results as given in patent US20050043264A1, “Methods of inhibiting neurodegenerative disease” (priority 2003, published 2005).
Entries after “also recorded” stand apart in the source; their conditions may differ. Where a name gives a salt, the structure may show the parent alone.

Legend:
[1] = system: BG2-c2 neuronal cells; experiment: Cdk5 subcellular translocalization by immunostaining and confocal microscopy; assay type: cell-based, Drosophila melanogaster; settings: 2 μM Aβ42 one hour, agent given simultaneously with or before Aβ42 (BL-1 5 μM)
[2] = system: Cdk5; experiment: In vitro Cdk5 kinase assay of immunoprecipitates with histone H1 as substrate, BG2-c2 cells; assay type: cell-based, Drosophila melanogaster; settings: for Abl kinase activity regulation, used to confirm Abl requirement for modulation of Cdk5 kinase: BG2-c2 cells, other Abl kinase regulating agents
Method: (§1) A kinase assay was performed by washing immunoprecipitates three times with kinase reaction buffer (50 mM HEPES [pH 7.0], 10 mM MgCl2, and 1 mM DTT). The beads with target proteins were incubated with kinase reaction buffer containing 2 μg of substrate (histone H1)(Calbiochem, San Diego, Calif.) and 10 μCi of ^33Pγ-ATP in a final volume of 40 μl at 30° C. for 30 minutes.
Whether Cdk5 was activated in the Abl-Cdk5 complex was also investigated. Cdk5 was immunoprecipitated from the cell lysate for an vitro kinase assay, using histone H1 as a substrate (Connell-Crowley et al., 2000, Curr. Biol. 10:599). Similar to results reported for mammalian cells (Alvarez et al., 2001, Exp. Cell Res. 264:266), Drosophila Cdk5 kinase activity was elevated following Aβ42 treatment as compared to controls (FIG. 2B, bottom panel). […] Moreover, other Abl kinase regulating agents including doxorubicin (DX) and erbstatin analog (EA) were used to activate or suppress Abl kinase activity, respectively, and confirmed that Abl kinase activity was required for modulation of Cdk5 kinase.

[3] = system: Cdk5-pY15; experiment: Cdk5-Y15 phosphorylation (Cdk5-pY15) immunoblot, BG2-c2 cells; assay type: cell-based, Drosophila melanogaster; settings: Aβ42 (2 μM)-treated BG2-c2 cells; STI571 20 μM 60 minutes; dsRNA 20 μg/2×10^6 cells two days before Aβ42
Method: To understand the role of Drosophila Cdk5 in neurodegeneration, the phosphorylation of Cdk5-Y15 was investigated to determine if it was correlated with the pathological activation of Cdk5 in neuronal cells. Cdk5-Y15 phosphorylation (Cdk5-pY15) levels in BG2-c2 cells were examined over time following treatment with 2 μM Aβ42. The presence of […] in the immunoprecipitates was shown by immunoblotting with an anti-phospho antibody specific for Cdk5-pY15. Within 60 minutes, Aβ42 caused an elevation of Cdk5-pY15, which was coincident with an increase in Cdk5 kinase activity (FIG. 4A). […] Moreover, dsRNA-abl (20 μg/2×10^6 cells) was transfected into BG2-c2 cells to reduce Abl expression two days before Aβ42 treatment.

[4] = system: BG2-c2 cells; experiment: Modified MTT cell viability assay, Aβ42-induced neuronal death; assay type: cell-based, Drosophila melanogaster; settings: BG2-c2 cells treated with Aβ42; dsRNA transfected two days before Aβ42 for 24 hours
Method: (§2) The modified MTT assay (Sigma, St Louis, Mo.) was used to quantify neuronal cell viability (Lee et al., 2000, Nature 405:360). The intensities were measured using an optical density reader (SpectroMAXplus, Molecular Devices, Sunnyvale, Calif.) at 570 nm (background: 630 nm) and proportionally represented the viable cell numbers.

[5] = system: Cdk5-pY15; experiment: Cdk5-pY15 in Aβ42-treated IMR-32 cells (immunoblot); assay type: cell-based, human; settings: Aβ42 (20 μM) 24 hours, STI571 pretreatment 24 hours
Method: (§3) Cell lysate was produced in lysis buffer or extract buffer (Juang and Hoffmann,1999, Oncogene 18:5138) for Cdk5 immunoprecipitation. Proteins were analyzed by direct Western blotting (30 μg/lane) or blotting after immunoprecipitation (1˜2 mg/immunoprecipitation). Immunoprecipitates were collected by binding to protein G PLUS/Protein A-Agarose (Oncogene Research Products, Nottingham UK). The antibodies used are listed below: anti-Cdk5 antibody (clone DC17), (Upstate, Charlottesville, Va.); sc-750, (Santa Cruz Biotechnology, Inc., Santa Cruz Calif.), anti-Cdk5-pY15 antibody (sc-1 2919),(Santa Cruz Biotechnology, Inc., Santa Cruz C), anti-HA antibody (BAbCO, Berkely, Calif.), anti-p35 antibody (sc-820), (Santa Cruz Biotechnology, Inc., Santa Cruz Calif.), and affinity-purified Ena polyclonal antibody (generated by Dr. F. M. Hoffmann' Lab) (McArdle Laboratory for Cancer Research and Laboratory of Genetics, University of Wisconsin-Madison) ECL detection reagent (NEN, Boston, Mass.) was used to detect the immunoreactive proteins.
(§4) To determine if the role of Abl in Drosophila neurodegeneration is conserved in mammals, Abl kinase activity in Aβ42-induced mammalian neuronal apoptosis was investigated. […] Formation of p25 has been considered a causative agent that contributes to the deregulation of Cdk5 in human AD (Lee et al., 2000, Nature 405:360; Patrick et al., 1999, Nature 402:615). […]

[6] = system: Cdk5; experiment: Cdk5 kinase activity in Aβ42-treated IMR-32 cells (histone H1 kinase assay); assay type: cell-based, human; settings: Aβ42 (20 μM) 24 hours, STI571 pretreatment 24 hours
Method: as §1
(§5) To determine if the role of Abl in Drosophila neurodegeneration is conserved in mammals, Abl kinase activity in Aβ42-induced mammalian neuronal apoptosis was investigated. […] Formation of p25 has been considered a causative agent that contributes to the deregulation of Cdk5 in human AD (Lee et al., 2000, Nature 405:360; Patrick et al., 1999, Nature 402:615). […] Thus, it was important to determine whether the conversion of p35 into p25 is sufficient to deregulate Cdk5 activity while Abl activation is inhibited. […] The cells were then assayed for Cdk5 kinase activity and Y-15 phosphorylation.

[7] = system: IMR-32 cells; experiment: Neuronal viability, Aβ42-induced IMR-32 neuronal death; assay type: cell-based, human; settings: IMR-32 cells pretreated 24 hours with STI571, then Aβ42 24 or 72 hours
Method: as §2, §5

[8] = system: Dp35; experiment: Dp35 cleavage in HA-tagged Dp35 transfected BG2-c2 cells (anti-HA immunoblot); assay type: cell-based, Drosophila melanogaster; settings: BG2-c2 cells with HA-tagged Dp35, A23187 with 5 μM CaCl2, 24 hours
Excerpt: Like Abl, p35 is conserved in Drosophila and functions to modulate Cdk5 activity during neurite outgrowth (Connell-Crowley et al., 2000, Curr. Biol. 10:599). In the AD brain, mammalian p35 is cleaved into p25 by calpain to deregulate Cdk5 (Lee et al., 2000, Nature 405:360). Although a putative calpain is also present in Drosophila (Jekely and Friedrich, 1999, J. Biol. Chem. 274:23893), the consensus calpain cleavage site is absent in Drosophila p35 (Dp35) (FIG. 5A). Therefore, it was unclear whether Dp35 would be converted into p25 upon Aβ42 stimulation. To investigate this possibility, carboxyl-terminal HA-tagged Dp35 was transfected into BG2-c2 cells before treating them with Aβ42or A23187/Ca^2+ (calcium ionophore). […] To analyze the Dp35 cleavage in vivo, transgenic flies co-expressing Dp35 and Aβ42 in the developing eyes were generated using a gmr-GAL4 driver. Consistent with the in vitro result, no visible cleavage or reduction of the Dp35 protein in the Aβ42 transgenic flies were observed (FIG. 5B, right panel).

[9] = system: p35; experiment: Cleavage of p35 into p25 in Aβ42-treated IMR-32 cells (immunoblot); assay type: cell-based, human; settings: Aβ42 (20 μM) 24 hours, STI571 pretreatment 24 hours
Method: as §3, §4

## Cc1ccc(NC(=O)c2ccc(CN3CCN(C)CC3)cc2)cc1Nc1nccc(-c2cccnc2)n1 [STI571, imatinib mesylate]
[1]
  Aβ42-stimulated Cdk5 translocalization to the perinuclear cytoplasm: markedly suppressed; also recorded: no Abl or Cdk5 protein translocalization to perinuclear region
[2]; Aβ42 (2 μM)-treated BG2-c2 cells, STI571 20 μM 60 minutes, dsRNA 20 μg/2×10^6 cells two days before Aβ42
  Cdk5 kinase activity (histone H1 phosphorylation): sharply diminished; also recorded: reduced
[3]
  Cdk5-pY15 (Cdk5-Y15 phosphorylation): diminished; also recorded: reduced
[4]
  Aβ42-induced neuronal death (neuronal viability, MTT): rescued Aβ42-induced neuronal death; also recorded: suppressed
[5]
  Cdk5-pY15 (Y15 phosphorylation): abolished; also recorded: suppressed
[6]
  Cdk5 kinase activity: abolished; also recorded: suppressed
[7]
  Aβ42-induced IMR-32 neuronal death (neuronal viability): rescued the neuronal death; also recorded: effectively suppressed

## CNc1ccc2oc(C[C@H]3O[C@@]4(CC[C@H]3C)O[C@H]([C@H](C)C(=O)c3ccc[nH]3)[C@H](C)C[C@H]4C)nc2c1C(=O)O [A23187]
[8]
  Dp35 cleavage / Dp35 protein levels: no noticeable cleavage or reduction; also recorded: no detectable cleavage or reduction

## CCCC[C@@H](C=O)NC(=O)[C@H](CC(C)C)NC(=O)OCc1ccccc1 [Calpeptin]
[9]
  Cleavage of p35 into p25 (formation of p25): blockade of p35 cleavage
[5]
  Cdk5-pY15 (Y15 phosphorylation): did not diminish
[6]
  Cdk5 kinase activity: considerably reduced

## COC(=O)C=Cc1cc(O)ccc1O [erbstatin analog, 2,5-dihydroxymethylcinnamate]
[2]
  Abl kinase activity regulation, used to confirm Abl requirement for modulation of Cdk5 kinase: suppress

## COc1cccc2c1C(=O)c1c(O)c3c(c(O)c1C2=O)C[C@@](O)(C(=O)CO)C[C@@H]3O[C@H]1C[C@H](N)[C@H](O)[C@H](C)O1 [doxorubicin]
[2]
  Abl kinase activity regulation, used to confirm Abl requirement for modulation of Cdk5 kinase: activate
